Results as given in ChEMBL document CHEMBL6182935, “Discovery of a Novel Silybin Derivative for the Treatment of Metabolic Dysfunction-Associated Steatohepatitis” (J Med Chem, 2025).
Activity calls are given as the source filed them. The rule behind the calls is not given here.

Columns and labels:
Hepatocyte [1] = test: Anti-MASH activity in palmitate/oleate-stimulated mouse primary hepatocytes assessed as reduction in triglyceride level; format: functional, cell-based
Rattus norvegicus = test: Hepatoprotective activity in male Sprague-Dawley rat model of CCl4-induced ALI assessed as reduction in yellowing of liver at 100 mg/kg, IG qd pretreated with compound for 7 days followed by CCl4 administration after 2 hrs post-compound treatment measured after 16 hrs post-CCl4 injection; format: functional, organism-based; settings: time 186.0 hrs
Hepatocyte [2] = test: Anti-MASH activity in palmitate/oleate-stimulated mouse primary hepatocytes assessed as reduction in ACACA mRNA level by q-PCR analysis; format: functional, cell-based
Mus musculus [3] = test: Anti-MASH activity in HFD-fed CCl4-treated male C57BL/6 mouse assessed as restoration of liver GSH-Px level at 150 mg/kg, po qd treated for 4 weeks; format: functional, organism-based
Mus musculus [4] = test: Anti-MASH activity in HFD-fed CCl4-treated male C57BL/6 mouse assessed as reduction in fat accumulation in liver at 150 mg/kg, po qd treated for 4 weeks by Oil red O staining based analysis; format: functional, organism-based
[5] = Antioxidant activity assessed as clearing rate incubated for 5 mins in presence of pyrogallol by superoxide anion scavenging assay; format: functional
Mus musculus [6] = test: Anti-MASH activity in HFD-fed CCl4-treated male C57BL/6 mouse assessed as decrease in liver MDA level at 150 mg/kg, po qd treated for 4 weeks; format: functional, organism-based
L02 = test: Anti-inflammatory activity in CCl4-stimulated human LO2 cells assessed as reduction in IL-6 mRNA level at 1 uM; format: functional, cell-based
Mus musculus [7] = test: Anti-MASH activity in HFD-fed CCl4-treated male C57BL/6 mouse assessed as reversal of mottled texture of liver at 150 mg/kg, po qd treated for 4 weeks; format: functional, organism-based

COc1cc([C@@H]2Oc3cc([C@H]4Oc5cc(O)cc(O)c5C(=O)[C@@H]4O)ccc3OC2CS)ccc1O (some centres undefined)
Activity (Hepatocyte [1]): Active | Activity (Rattus norvegicus): Active | Activity (Hepatocyte [2]): Active | Activity (Mus musculus [3]): Active | Activity (Mus musculus [4]): Active | Activity [5]: 82.9% | Activity (Mus musculus [6]): Active; Compound Was More Significant Than Silybin | Activity (L02): Active | Activity (Mus musculus [7]): Active; Activity Better Than Silybin
